Tests used:
[1] = Transdermal delivery of conjugate to microporated rat skin, conjugate level in plasma by sandwich ELISA; type: in vivo, Male CD Hairless rats; settings: rats; for Intact conjugate present in the blood stream as a function of time: after application to microporated skin, blood draws over 2-3 hour period; for Transdermal delivery of the peptide conjugate: applied to microporated skin relative to intact skin, occluded
Procedure: The γV5 peptide RLVLAS (SEQ ID NO: 43) with an […] (Ac) end cap was attached by a GG linker to a TAT carrier peptide (SEQ ID NO: 46) and then the C-terminus was amidated (NH2) to form a conjugate identified as SEQ ID NO: 49. Transdermal delivery of this conjugate was performed as described in Example 1 except that a 1 cm^2 solid polymer microneedle array was used to microporate the skin and an aqueous reservoir patch was used to contact a 10% aqueous formulation of the conjugate with the microporated skin. Results are shown in FIG. 3, where the amount of conjugate in the blood, in ng/mL, is shown as a function of time.

[2] = microporated vs intact rat skin; 30 μm planar skin sections (FIG. 1A)
Description: Male CD Hairless rats were weighed (range: 300-500 grams) and anesthetized by inhaled isoflurane. The rats remained under anesthesia for the duration of the experiment and were sacrificed after the last blood draw. Rats were cannulated at a femoral or jugular vein for blood draws. A derma roller with 1.0 or 1.5 mm microneedles (Moohan Dr. Roller) was rolled across a 1 cm^2 area of skin on the dorsal trunk or waist by passing the roller over the skin 5 times with moderate pressure. Fifty μL of the cPKC inhibitor peptide [sequence] (SEQ ID NO:13) attached to a TAT carrier peptide to form the conjugate peptide identified as SEQ ID NO: 14 at 1% to 10% (10 to 100 mg/mL) was applied to the microporated skin and occluded with a 1 cm^2 piece of saran wrap. […] As a control, rats with intact skin (i.e., rats not subjected to the microneedle array) were also treated with the same peptide conjugate.
To analyze levels of the εPKC inhibitor peptide [sequence] (SEQ ID NO:13) in plasma, both ELISA on planar skin sections and a sandwich ELISA that uses antibodies that recognize different portions of the conjugate (the εPKC inhibitor peptide and the TAT carrier peptide) were employed.

## CC[C@H](C)[C@H](NC(=O)[C@@H]1CCCN1C(=O)[C@H](C)NC(=O)[C@H](CC(=O)O)NC(=O)[C@H](Cc1c[nH]cn1)NC(C)=O)C(=O)NCC(=O)N[C@@H](Cc1ccc(O)cc1)C(=O)N[C@@H](CC(=O)O)C(=O)NCCCCCC(=O)N[C@@H](Cc1ccc(O)cc1)C(=O)NCC(=O)N[C@@H](CCCNC(=N)N)C(=O)N[C@@H](CCCCN)C(=O)N[C@@H](CCCCN)C(=O)N[C@@H](CCCNC(=N)N)C(=O)N[C@@H](CCCNC(=N)N)C(=O)N[C@@H](CCC(N)=O)C(=O)N[C@@H](CCCNC(=N)N)C(=O)N[C@@H](CCCNC(=N)N)C(=O)N[C@@H](CCCNC(=N)N)C(N)=O [SEQ ID NO: 19, AC-HDAPIGYD-AHX-YGRKKRRQRRR-NH2]
[1]
  Intact conjugate present in the blood stream as a function of time: in an increasing amount with time
  Transdermal delivery of the peptide conjugate: enhanced

## Ac-EAVSLKPTGGYGRKKRRQRRR-NH2 [SEQ ID NO: 14, Ac-EAVSLKPT GG YGRKKRRQRRR-NH2]
[2]
  Penetration of the peptide conjugate through the stratum corneum and into the underlying skin: increased penetration
[1]
  Intact conjugate present in the blood stream as a function of time: in an increasing amount with time
  Transdermal delivery of the peptide conjugate: significantly enhanced

From US20100311671A1, “TRANSDERMAL DELIVERY OF PKC MODULATORY PEPTIDES THROUGH MI[…]” (Kai Pharmaceuticals, priority 2009, published 2010)
